Paper PMC11211671, “Phage‐displayed heptapeptide sequence conjugation significantly improves the specific targeting ability of antimicrobial peptides against Staphylococcus aureus” (mLife, 2024)
≈ marks a conversion by molar mass, not a printed value. Peptide text beside a SMILES is read from it.

Experiments:
S. epidermidis 12228 = assay type: cell-based, Staphylococcus epidermidis
Description: (§1) MICs were determined to evaluate the antimicrobial activities of the peptides. The bacteria were inoculated into Mueller‐Hinton broth (MHB) medium in advance and placed in a shaker at 37°C until the logarithmic growth phase. The optical density value at OD600 of the bacterial suspension was adjusted to 0.4, and then diluted 1000 times with sterile MHB medium. Subsequently, the peptides with concentrations of 0.25–128 μM were prepared using bovine serum albumin (BSA) solution (0.2% BSA and 0.01% acetic acid) as the solvent on a 96‐well plate. Different concentrations of peptides and bacterial liquids were mixed in equal volumes. MHB medium containing bacteria was used as a positive control. MHB medium without bacteria was used as a negative control. Then, the mixture of peptides and bacteria was cultured in an incubator at 37°C for 18–24 h. The optical density of each well was measured at 492 nm using a microplate reader. The lowest drug concentration corresponding to a culture mixture with an optical density of less than 0.1 is the MIC of the peptide. The assay was repeated three times in duplicate.

S. aureus ATCC 6538 = assay type: cell-based, Staphylococcus aureus
Description: as §1
The assay was performed to analyze the salt ion stability of SFK2 by measuring changes in MIC values in different physiological salt concentrations, [46].

P. aeruginosa 27853 = assay type: cell-based, Pseudomonas aeruginosa
Description: as §1

P. aeruginosa 15442 = assay type: cell-based, Pseudomonas aeruginosa
Description: as §1

BALB/c mice [1] = experiment: Biosafety evaluation, intraperitoneal injection; assay type: in vivo, mouse; settings: i.p. 15 and 30 mg/kg once daily, 7 days, n = 6, except 15 mg/kg group for urea
Description: Eighteen male BALB/c mice (weighing approximately 30 g) were randomly divided into three groups (control, low‐dose, and high‐dose groups). Mice in the low‐ and high‐dose groups were intraperitoneally injected with 15 and 30 mg/kg polypeptide solutions, respectively, once daily. Mice in the control group were injected intraperitoneally with 150 µl of saline once daily. The experiment lasted for 7 days, and the changes in the body weight of the mice were recorded. After the seventh intraperitoneal injection for another 12 h, the mice were anesthetized with ether and euthanized. Blood was collected from the orbital vein, and serum was analyzed by biochemical analysis after centrifugation. The livers and kidneys of mice were collected and weighed. Afterward, the organs were fixed in a 4% paraformaldehyde solution and stained with H&E for analysis.

red blood cells = assay type: cell-based, pig
Description: A series of parameters such as charge number, hydrophobicity, sequence length, and amphipathicity can affect the hemolytic activity of peptides against red blood cells. The minimal hemolytic concentration (MHC) refers to the minimum concentration that causes hemolysis of 10 % of red blood cells, and is often used to evaluate the hemolytic activity of the peptides. Except for SFK3, the percentage of hemolysis at 128 μM was below 5% for all peptides. Hemolysis of the erythrocytes occurred after incubation with Triton X‐100, with complete fragmentation of the erythrocytes and a bright red color of the reaction system (Figure 2B,C and Table S5).
The hemolytic activity of the peptide was calculated by measuring the level of […] released from mammalian red blood cell lysis induced by the peptide, [44]. Fresh porcine blood was collected from the jugular vein and washed with PBS three times, and red blood cells were collected. A red blood cell suspension of 10% (v/v) concentration was prepared in 10 mM PBS (pH = 7.4). After mixing with different concentrations of peptides in equal volume, they were incubated at 37°C for 2 h. Red blood cells treated with PBS and 0.1% Triton X‐100 were used as negative and positive controls, respectively. The assay was repeated three times. After the sample was centrifuged, the supernatant was transferred to a new 96‐well plate, and the optical density at 570 nm was measured using a microplate reader. Hemolysis was calculated as follows: Hemolytic activity(%)=ODtest sample−ODnegative control/ODpositive control−ODnegative control×100%

E. coli K88 = assay type: cell-based, Escherichia coli; settings: microbroth dilution, MHB, 37°C, 18–24 h, OD492 < 0.1; repeated three times in duplicate
Description: as §1

E. coli K99 = assay type: cell-based, Escherichia coli; settings: microbroth dilution, MHB, 37°C, 18–24 h, OD492 < 0.1; repeated three times in duplicate
Description: as §1

E. coli 25922 = assay type: cell-based, Escherichia coli
Description: as §1

S. aureus 1882 = assay type: cell-based, Staphylococcus aureus
Description: as §1

S. aureus 6538 = assay type: cell-based, Staphylococcus aureus
Description: as §1

BALB/c mice [2] = experiment: Biosafety evaluation, tail vein injection; assay type: in vivo, mouse; settings: tail vein 5 mg/kg once daily, 7 days, n = 6
Description: Twelve male BALB/c mice (weighing approximately 20 g) were randomly divided into two groups (control and peptide‐treated groups). Mice in the peptide‐treated group were injected intravenously into the tail vein with 5 mg/kg peptide solution once daily. In the control group, mice were injected once daily with saline via the tail vein. The experiment was continued for 7 days, and changes in body weight were recorded. Mice were anesthetized with ether and euthanized 12 h after the seventh tail vein injection. Blood was collected from the orbital vein and centrifuged, and the serum was analyzed biochemically. The livers and kidneys of mice were collected and weighed. The organs were then fixed in a 4% paraformaldehyde solution and analyzed by H&E staining.

`CC[C@H](C)[C@H](NC(=O)[C@H](CCCNC(=N)N)NC(=O)[C@H](CO)NC(=O)[C@H](CC(C)C)NC(=O)[C@H](Cc1ccccc1)NC(=O)[C@H](Cc1ccccc1)NC(=O)[C@H](Cc1ccccc1)NC(=O)CNC(=O)CNC(=O)CNC(=O)[C@H](CO)NC(=O)[C@H](C)NC(=O)[C@H](CCCNC(=N)N)NC(=O)[C@@H](NC(=O)[C@H](Cc1c[nH]c2ccccc12)NC(=O)[C@H](Cc1ccc(O)cc1)NC(=O)[C@@H](N)CO)C(C)C)C(=O)N[C@@H](Cc1ccccc1)C(=O)N[C@@H](CCCCN)C(=O)N[C@@H](CCCCN)C(N)=O` [SFK2] (H-SYWVRASGGGFFFLSRIFKK-NH2) was tested, and the “MIC S. epidermidis 12228” value (S. epidermidis 12228) was over 64 µM, the “MIC of SFK2 against S. aureus ATCC 6538, Control” value (S. aureus ATCC 6538) was 2 µM and the “MIC of SFK2 against S. aureus ATCC 6538, FeCl3” value (S. aureus ATCC 6538) was 4 µM. The “MIC of SFK2 against S. aureus ATCC 6538, KCl” value (S. aureus ATCC 6538) was 4 µM, the “MIC of SFK2 against S. aureus ATCC 6538, MgCl2” value (S. aureus ATCC 6538) was 4 µM and the “MIC of SFK2 against S. aureus ATCC 6538, NH4Cl” value (S. aureus ATCC 6538) was 4 µM. For the same compound, the “MIC of SFK2 against S. aureus ATCC 6538, NaCl” value (S. aureus ATCC 6538) was 4 µM, the “MIC of SFK2 against S. aureus ATCC 6538, ZnCl2” value (S. aureus ATCC 6538) was 2 µM and the “MIC P. aeruginosa 27853” value (P. aeruginosa 27853) was over 64 µM. For the same compound, the “MIC P. aeruginosa 15442” value (P. aeruginosa 15442) was over 64 µM, the “Relative organ indices and liver- and kidney function-related indices (Crea, urea, AST, ALT, TBIL, ALP)” value (BALB/c mice [1]) was “no significant differences” and the MHC (red blood cells) was “>128 μM”. The “MIC E. coli K88” value (E. coli K88) was over 64 µM, the “MIC E. coli K99” value (E. coli K99) was over 64 µM and the “MIC E. coli 25922” value (E. coli 25922) was over 64 µM. For the same compound, the “MIC S. aureus 1882” value (S. aureus 1882) was 2 µM (≈ 4.71 µg/mL), the “MIC S. aureus 6538” value (S. aureus 6538) was 2 µM (≈ 4.71 µg/mL) and the “Toxic side effects after tail vein injection” value (BALB/c mice [2]) was “negligible toxic side effects”.
